Reference: patent publication US9505709B2, “Compositions and methods relating to ionic salts of peptides” (Thetis Pharmaceuticals LLC, priority 2014, dated 2016)

Key:
Balb/C mice = assay: Ocular irritation after topical dosing to the cornea (hyperemia, squinting, discharge, lid swelling); type: in vivo; conditions: for Hyperemia: 3 μL drop in each eye four times daily for 3 days; for Squinting: topical to cornea; for Concentration at which not irritating / well tolerated: topical to cornea four times daily for 3 days
Procedure: In an embodiment where the ophthalmic formulation is an aqueous formulation, it has been determined in mice that certain formulations can be administered to the surface of the eye without producing irritation that would make them unsuitable for such application. Irritation parameters of TP-211-1, TP-212-1, TP-311-1 and TP-312-1 related to hyperemia, squinting, and discharge were determined in Balb/C mice. Mice were dosed topically to the cornea using a calibrated micropipette, with a 3 μL drop of treatment in each eye four times daily for 3 consecutive days at various concentrations.
TP-211-1 is Lysyl-lysine EPA. TP-212-1 is Lysyl-lysine bis-EPA. TP-311-1 is Lysyl-lysine DHA. TP-312-1 is Lysyl-lysine bis-DHA. The study drugs were prepared using phosphate buffered saline (PBS) to reach target concentrations ranging from 0.1% to 1.0%.
The animals were monitored for scratching at the eye or any other abnormal behavior post-dose. Ocular exams were conducted on Days 1 and 3 with use of a Micron III camera system to take high resolution videos of the right eye of each animal Clinical signs including but not limited to hyperemia, discharge, lid swelling, and squinting were evaluated by trained personnel who was masked as to group assignment. Each clinical sign was graded on a scale of 0-4, with the exception of lid swelling which was graded on a scale of 0-2. Scores were averaged and are expressed as the mean±SEM for each group. Statistical significance was assessed between the treatment arms and the vehicle group. Any significance is noted by asterisks (*=p<0.05, **=p<0.01, ***=p<0.001).

[1] = Stability analysis by 1H NMR of samples exposed to air and light; conditions: ambient temperature
Procedure: Stability analysis was performed using 1H NMR (400 MHz) with acetic acid-d4 at various time point (typically days 1, 14, 30 and 60) using samples exposed to air and light at ambient temperature (clear vials with no caps).

Compound	Hyperemia (Balb/C mice; 0.1% concentration in PBS)	Hyperemia (Balb/C mice; 0.25% concentration in PBS)	Hyperemia (Balb/C mice; 0.5% concentration in PBS)	Squinting (Balb/C mice; all concentrations tested)	Hyperemia at last dose / final evaluation (Balb/C mice; concentrations that showed an initial increase or all tested, last dose / final evaluation (Day 3))	Concentration at which not irritating / well tolerated (Balb/C mice)	Stability by NMR (amount of sample remaining relative to original sample) ([1]; Day 3)	Stability by NMR (amount of sample remaining relative to original sample) ([1]; Day 14)	Stability by NMR (amount of sample remaining relative to original sample) ([1]; Day 30)	Stability by NMR (amount of sample remaining relative to original sample) ([1]; Day 60)	Squinting (Balb/C mice; 0.5% concentration in PBS)	Hyperemia (Balb/C mice; 1.0% concentration in PBS)	Squinting (Balb/C mice; 1.0% concentration in PBS)
CC/C=C\C/C=C\C/C=C\C/C=C\C/C=C\CCCC(=O)O.NCCCC[C@H](NC(=O)[C@@H](N)CCCCN)C(=O)O [Compound 1, (L,L) Lysyl-lysine EPA salt (mono)]	maintained baseline levels of hyperemia throughout both evaluations	maintained baseline levels of hyperemia throughout both evaluations	some initial increase in hyperemia	no statistically significant changes in squinting	returned to baseline levels by the last dose on Day 3	less than 0.5%	1 (1 = >95%)	1 (1 = >95%)	1 (1 = >95%)	1 (1 = >95%)			
CC/C=C\C/C=C\C/C=C\C/C=C\C/C=C\C/C=C\CCC(=O)O.NCCCC[C@H](NC(=O)[C@@H](N)CCCCN)C(=O)O [Compound 3, (L,L) Lysyl lysine DHA (mono)]			did not cause any increase in hyperemia or squinting throughout			less than 1.0%	1 (1 = >95%)	1 (1 = >95%)	1 (1 = >95%)	1 (1 = >95%)	did not cause any increase in hyperemia or squinting throughout	elevated hyperemia after the first dose administration	no increase in squinting levels
